Measurements taken from patent US20230085307A1, “PYRIDAZINONE COMPOUND AND HERBICIDE” (NISSAN CHEMICAL CORPORATION, priority 2019, published 2023).

How the values were obtained:
Chinese sprangletop = test: Test Example 3: herbicidal effect by foliage application, Wagner pot (Table 18, symbol D); format: in vivo, chinese sprangletop (Leptochloa chinensis); conditions: amount of applied herbicide 320 g/ha
Summary of the method: (§1)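 Plants were sown in alluvial soil held under 0.1–0.5 cm standing water and grown 14 days in a greenhouse at 25–30 °C. An emulsifiable formulation, water-diluted to the set dose, was then sprayed onto the foliage, and effects were scored three weeks later using previously defined criteria.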

false cleavers [1] = test: Test Example 4: herbicidal effect by soil treatment (Table 19, symbol Q); format: in vivo, false cleavers (Galium spurium); conditions: amount of applied herbicide 320 g/ha
Summary of the method: (§2)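 Step 1: sow seeds in sterilized diluvial soil, cover ~1.5 cm. Step 2: spray diluted emulsion onto soil surface at predetermined rate. Step 3: greenhouse, 25–30° C, three weeks. Step 4: grade effect on each plant by earlier criteria.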

persian speedwell [2] = test: Test Example 4: herbicidal effect by soil treatment (Table 19, symbol R); format: in vivo, Persian speedwell (Veronica persica); conditions: amount of applied herbicide 320 g/ha
Summary of the method: as §2

chickweed = test: Test Example 4: herbicidal effect by soil treatment (Table 19, symbol P); format: in vivo, common chickweed (Stellaria media); conditions: amount of applied herbicide 320 g/ha
Summary of the method: as §2

lambsquarters [3] = test: Test Example 4: herbicidal effect by soil treatment (Table 19, symbol O); format: in vivo, lambsquarters (Chenopodium album); conditions: amount of applied herbicide 320 g/ha
Summary of the method: as §2

redroot pigweed = test: Test Example 4: herbicidal effect by soil treatment (Table 19, symbol N); format: in vivo, redroot pigweed (Amaranthus retroflexus); conditions: amount of applied herbicide 320 g/ha
Summary of the method: as §2

southern crabgrass [4] = test: Test Example 4: herbicidal effect by soil treatment (Table 19, symbol F); format: in vivo, southern crabgrass (Digitaria ciliaris); conditions: amount of applied herbicide 320 g/ha
Summary of the method: as §2

green foxtail [5] = test: Test Example 5: herbicidal effect by foliage application, plastic box (Table 20, symbol G); format: in vivo, green foxtail (Setaria viridis); conditions: foliage application, 320 g/ha, three weeks after application
Summary of the method: (§3)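 Foliar spray test: emulsion formulation diluted in water to a set application rate, sprayed onto 14-day-old plants raised in diluvial soil at 25° C to 30° C under glass. Both herbicidal effect and crop effect rated visually three weeks later.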

windgrass [6] = test: Test Example 5: herbicidal effect by foliage application, plastic box (Table 20, symbol L); format: in vivo, windgrass (Apera spica-venti); conditions: foliage application, 320 g/ha, three weeks after application
Summary of the method: as §3

persian speedwell [7] = test: Test Example 5: herbicidal effect by foliage application, plastic box (Table 20, symbol R); format: in vivo, Persian speedwell (Veronica persica); conditions: foliage application, 320 g/ha, three weeks after application
Summary of the method: as §3

velvetleaf [8] = test: Test Example 4: herbicidal effect by soil treatment (Table 19, symbol M); format: in vivo, velvetleaf (Abutilon theophrasti); conditions: amount of applied herbicide 320 g/ha
Summary of the method: as §2

Italian ryegrass [9] = test: Test Example 4: herbicidal effect by soil treatment (Table 19, symbol K); format: in vivo, Italian ryegrass (Lolium multiflorum); conditions: amount of applied herbicide 320 g/ha
Summary of the method: as §2

rice flat sedge = test: Test Example 3: herbicidal effect by foliage application, Wagner pot (Table 18, symbol E); format: in vivo, rice flat sedge (Cyperus iria); conditions: amount of applied herbicide 320 g/ha
Summary of the method: as §1

barnyard grass [10] = test: Test Example 3: herbicidal effect by foliage application, Wagner pot (Table 18, symbol H); format: in vivo, barnyard grass (Echinochloa crus-galli); conditions: amount of applied herbicide 320 g/ha
Summary of the method: as §1

lambsquarters [11] = test: Test Example 5: herbicidal effect by foliage application, plastic box (Table 20, symbol O); format: in vivo, lambsquarters (Chenopodium album); conditions: foliage application, 320 g/ha, three weeks after application
Summary of the method: as §3

barnyard grass [12] = test: Test Example 4: herbicidal effect by soil treatment (Table 19, symbol H); format: in vivo, barnyard grass (Echinochloa crus-galli); conditions: amount of applied herbicide 320 g/ha
Summary of the method: as §2

barnyard grass [13] = test: Test Example 5: herbicidal effect by foliage application, plastic box (Table 20, symbol H); format: in vivo, barnyard grass (Echinochloa crus-galli); conditions: foliage application, 320 g/ha, three weeks after application
Summary of the method: as §3

southern crabgrass [14] = test: Test Example 5: herbicidal effect by foliage application, plastic box (Table 20, symbol F); format: in vivo, southern crabgrass (Digitaria ciliaris); conditions: foliage application, 320 g/ha, three weeks after application
Summary of the method: as §3

green foxtail [15] = test: Test Example 4: herbicidal effect by soil treatment (Table 19, symbol G); format: in vivo, green foxtail (Setaria viridis); conditions: amount of applied herbicide 320 g/ha
Summary of the method: as §2

false cleavers [16] = test: Test Example 5: herbicidal effect by foliage application, plastic box (Table 20, symbol Q); format: in vivo, false cleavers (Galium spurium); conditions: foliage application, 320 g/ha, three weeks after application
Summary of the method: as §3

velvetleaf [17] = test: Test Example 5: herbicidal effect by foliage application, plastic box (Table 20, symbol M); format: in vivo, velvetleaf (Abutilon theophrasti); conditions: foliage application, 320 g/ha, three weeks after application
Summary of the method: as §3

Italian ryegrass [18] = test: Test Example 5: herbicidal effect by foliage application, plastic box (Table 20, symbol K); format: in vivo, Italian ryegrass (Lolium multiflorum); conditions: foliage application, 320 g/ha, three weeks after application
Summary of the method: as §3

wild oat [19] = test: Test Example 5: herbicidal effect by foliage application, plastic box (Table 20, symbol I); format: in vivo, wild oat (Avena fatua); conditions: foliage application, 320 g/ha, three weeks after application
Summary of the method: as §3

windgrass [20] = test: Test Example 4: herbicidal effect by soil treatment (Table 19, symbol L); format: in vivo, windgrass (Apera spica-venti); conditions: amount of applied herbicide 320 g/ha
Summary of the method: as §2

blackgrass [21] = test: Test Example 4: herbicidal effect by soil treatment (Table 19, symbol J); format: in vivo, blackgrass (Alopecurus myosuroides); conditions: amount of applied herbicide 320 g/ha
Summary of the method: as §2

blackgrass [22] = test: Test Example 5: herbicidal effect by foliage application, plastic box (Table 20, symbol J); format: in vivo, blackgrass (Alopecurus myosuroides); conditions: foliage application, 320 g/ha, three weeks after application
Summary of the method: as §3

wild oat [23] = test: Test Example 4: herbicidal effect by soil treatment (Table 19, symbol I); format: in vivo, wild oat (Avena fatua); conditions: amount of applied herbicide 320 g/ha
Summary of the method: as §2

COc1cc(F)ccc1-c1oc2ccccc2c1-c1c(O)c(C)nn(C)c1=O [8-001]
Herbicidal effect on D (Chinese sprangletop), foliage application (Chinese sprangletop): 3 (Herbicidal rate of 40% or more and less than 70%) | Q: false cleavers, herbicidal effect grade (false cleavers [1]): 0 (Herbicidal rate of 5% or less (almost no effect)) | R: persian speedwell, herbicidal effect grade (persian speedwell [2]): 0 (Herbicidal rate of 5% or less (almost no effect)) | P: chickweed, herbicidal effect grade (chickweed): 0 (Herbicidal rate of 5% or less (almost no effect)) | O: lambsquarters, herbicidal effect grade (lambsquarters [3]): 0 (Herbicidal rate of 5% or less (almost no effect)) | N: redroot pigweed, herbicidal effect grade (redroot pigweed): 0 (Herbicidal rate of 5% or less (almost no effect)) | F: southern crabgrass, herbicidal effect grade (southern crabgrass [4]): 0 (Herbicidal rate of 5% or less (almost no effect)) | herbicidal effect on green foxtail (G) (green foxtail [5]): 3 (Herbicidal rate of 40% or more and less than 70%) | herbicidal effect on windgrass (L) (windgrass [6]): 5 (Herbicidal rate of 90% or more (almost completely withered)) | herbicidal effect on persian speedwell (R) (persian speedwell [7]): 4 (Herbicidal rate of 70% or more and less than 90%) | M: velvetleaf, herbicidal effect grade (velvetleaf [8]): 0 (Herbicidal rate of 5% or less (almost no effect)) | K: Italian ryegrass, herbicidal effect grade (Italian ryegrass [9]): 0 (Herbicidal rate of 5% or less (almost no effect)) | Herbicidal effect on E (rice flat sedge), foliage application (rice flat sedge): 1 (Herbicidal rate of 5% or more and less than 20%) | Herbicidal effect on H (barnyard grass), foliage application (barnyard grass [10]): 4 (Herbicidal rate of 70% or more and less than 90%) | herbicidal effect on lambsquarters (O) (lambsquarters [11]): 3 (Herbicidal rate of 40% or more and less than 70%) | H: barnyard grass, herbicidal effect grade (barnyard grass [12]): 0 (Herbicidal rate of 5% or less (almost no effect)) | herbicidal effect on barnyard grass (H) (barnyard grass [13]): 3 (Herbicidal rate of 40% or more and less than 70%) | herbicidal effect on southern crabgrass (F) (southern crabgrass [14]): 0 (Herbicidal rate of 5% or less (almost no effect)) | G: green foxtail, herbicidal effect grade (green foxtail [15]): 0 (Herbicidal rate of 5% or less (almost no effect)) | herbicidal effect on false cleavers (Q) (false cleavers [16]): 4 (Herbicidal rate of 70% or more and less than 90%) | herbicidal effect on velvetleaf (M) (velvetleaf [17]): 3 (Herbicidal rate of 40% or more and less than 70%) | herbicidal effect on Italian ryegrass (K) (Italian ryegrass [18]): 3 (Herbicidal rate of 40% or more and less than 70%) | herbicidal effect on wild oat (I) (wild oat [19]): 3 (Herbicidal rate of 40% or more and less than 70%) | L: windgrass, herbicidal effect grade (windgrass [20]): 0 (Herbicidal rate of 5% or less (almost no effect)) | J: blackgrass, herbicidal effect grade (blackgrass [21]): 0 (Herbicidal rate of 5% or less (almost no effect)) | herbicidal effect on blackgrass (J) (blackgrass [22]): 0 (Herbicidal rate of 5% or less (almost no effect)) | I: wild oat, herbicidal effect grade (wild oat [23]): 3 (Herbicidal rate of 40% or more and less than 70%)
